These are literature values, as cited in patent publication US20080280973A1, “Laulimalide Analogues as Therapeutic Agents” (priority 2004, published 2008).

Data set [1] concerns multi-drug resistant cell line SKVLB-1.
In data set [2] the test system is KB, P388, A549, HT29 and MEL28 cell lines.
Data set [3] concerns HeLa cells, NCI/ADR cells, MDA-MB-435 cell line. The settings on record: relative to laulimalide; cell line not specified.

With `C=C1C[C@H](C)C[C@@H]2CC=C[C@@H](C/C=C\C(=O)O[C@H]([C@@H](O)/C=C/[C@@H]3CC(C)=CCO3)C[C@@H]3O[C@H]3[C@@H](O)C1)O2` [Laulimalide, laulimalide], the IC50 in data set [1] was 1.2 µM. Besides, the anti-tumor potency range entry in data set [2] is “nanomolar range”.
For “C16-C17-des-epoxy laulimalide [des-epoxy analogue]”, the “fold less potent than laulimalide” value in data set [3] is “approximately 19 fold”.

One may read the IC50 as the point on the concentration scale where inhibition reaches its midpoint.
